Experimental data taken from patent US20060129385A1, “Cholinergic therapy for individuals with learning disabilities” (priority 2002, published 2006).

Experiments:
[1] = system: individuals with Down's Syndrome; assay: Test of Problem Solving (TOPS), 24 week open study of donepezil; assay type: in vivo, human
Protocol: (§1) In the current study, we specifically examined the effects of donepezil and tested the hypothesis that expressive language performance in individuals with Down's Syndrome would improve with donepezil treatment. Language performance was measured with two objective measures, the Test of Problem Solving [Zachman et al., 1984] and the Clinical Evaluation of Language Fundamentals-Revised [Semel et al., 1986].
Measures: The Test of Problem Solving [TOPS: Zachman et al., 1984]: The TOPS is an expressive language test that measures the ability to verbally identify reasonable solutions to problems presented via pictures. It has been used to assess pragmatic language ability in patients with AD. [Ripich et al., 1997]. The TOPS consists of 15 pictured scenarios with accompanying questions about each picture. The standard set of questions is designed to have the subject make inferences, to determine causes of particular events, to determine solutions to pictured problems, and to determine strategies for avoiding problems. The instrument was standardized on 1578 individuals (ages 6 years-0 months to 11 years-11 months). Age equivalent scores are provided for ages 3 years-5 months to 15 years-9 months. Validity and reliability data are available. TOPS raw scores for the overall [test as recommended by Powell, 1993] were determined by the average of two independent observers, one scoring onsite and a second scoring from audiotaped recordings of the test sessions.
(§2) Derivation of Language Level: Due to the absence of appropriate standardized measures for adults with DS, relative language level was determined by comparing subtest performance (raw scores) to the average performance level for five-year-olds. The five year-old level was selected because it is the lowest age level in which both tests provide normative data. For this study, TOPS performance was based on age equivalent scores.
(§3) Clinical Significance of Change: The clinical significance of the change in language performance following treatment was determined by comparing the difference in subject performance (between Baseline and treatment) to the amount of language improvement shown in one year by the average 5-year-old. For the TOPS, this index was the difference between the age equivalent score for children aged 5 years-0 months and the age equivalent score for children aged 6 years-0 months. For the CELF-R subtests, this index was difference between the mean raw scores for 5 year-olds and 6-year-olds.
Statistical Analyses: The main comparisons were changes from Baseline (week 0) assessed by repeated measures. […] Similarly, while we hypothesized an improvement in expressive language, the acceptable p-value was not adjusted to reflect a one-tailed analysis. P-values at or below 0.05 were viewed as significant. Changes on standardized measures were viewed as clinically significant if the magnitude of the observed change was substantial in comparison to the level of performance gain typically achieved by children in the 12 month period between age 5 and age 6. Across all measures, the performance gain between age 5 and age 6 is the highest rate of language gain recorded for any 12-month period.

[2] = system: individuals with Down's Syndrome; assay: Clinical Evaluation of Language Fundamentals-Revised (CELF-R), 24 week open study of donepezil; assay type: in vivo, human
Protocol: as §1
The Clinical Evaluation of Language Fundamentals-Revised (CELF-R: Semel et al., 1986]: The CELF-R is a diagnostic language test designed to assess language form and content, aspects of language generally regarded as fundamental to effective, oral—communication. Standardized expressive, receptive and overall language scores are derived from the summation of individual subtest scores. Typically, overall expressive and receptive language are evaluated by collapsing the subtest performance into a single receptive: or expressive language score. Individual subtest performance is analyzed for specific impairment within the broader expressive and receptive language domains. The instrument was standardized on 2,333 individuals (ages 5-0 to 16-11). Validity and reliability norms are available and adequate for each subtest.
as §2, §3
Statistical Analyses: The main comparisons were changes from Baseline (week 0) assessed by repeated measures. […] Similarly, while we hypothesized an improvement in expressive language, the acceptable p-value was not adjusted to reflect a one-tailed analysis. P-values at or below 0.05 were viewed as significant. […] Across all measures, the performance gain between age 5 and age 6 is the highest rate of language gain recorded for any 12-month period.

[3] = system: individuals with Down's Syndrome
Protocol: Subjects: After obtaining IRB approval and written informed consent, 5 males and […] with DS (confirmed by karyotyping), between the ages of 20-41 years (mean age=29 years), were enrolled in the trial. All subjects were verbal, able to hear speech at conversational level, and able to ingest oral medication. […] All individuals were evaluated for thyroid disorders and for Vitamin B 12 deficiency within 6 months of entry into the trial. […] Subject IQs ranged from 40 to 60 (mean IQ=52). The IQs of four subjects were determined during the baseline visit because testing had not been performed in the last 10 years. The IQ's of the two youngest subjects were determined from school records.
Study Design: This was a 24 week open study at the General Clinical Outpatient Research Unit at Duke University in which subjects attended three sessions, Week 0 (Baseline), Week 12 (Treatment-12), and Week 24 (Termination). Due to scheduling limitations, the average first post-treatment visit was at Week 13 and the second post-treatment visit was at Week 25. A physical exam and language testing were completed at all sessions. A checklist for medication related adverse events was performed at Week 12 and at study termination. At the completion of the Baseline visit, donepezil was dosed orally at 5 mg once daily for 6 weeks. The dose was increased to 10 mg (two 5 mg tablets) daily for the remaining weeks if the 5 mg dose was well tolerated. This dosage schedule was based on experience from a previous trial [Kishnani et al 1999] and the donepezil package insert. Patients were monitored closely for safety and tolerability of the medication by regular phone calls in between scheduled visits. Two language measures were used, the Test of Problem Solving (TOPS) and the Clinical Evaluation of Language Fundamentals-Revised (CELF-R). The TOPS was completed at Baseline and at Weeks 12 and 24 of treatment. The CELF-R was completed at Baseline and at Week 24.

DS patients = conditions: human, in vivo; cited from earlier work

SMILES: COc1cc2c(cc1OC)C(=O)C(CC1CCN(Cc3ccccc3)CC1)C2 (stereo not shown) [donepezil]
- change in TOPS performance, Treatment-12 weeks vs. Termination ([1]; after 12 additional weeks of treatment (24 weeks), paired samples t=0.52, p=0.6313): No change
- overall TOPS performance gain ([1]; after 12 weeks of treatment vs Baseline, oral 5 mg once daily for 6 weeks, then 10 mg daily, adults with DS, paired t=4.5, p=0.0107): 6.5
- overall TOPS performance gain ([1]; after 24 weeks of treatment (Termination) vs Baseline, oral 5 mg then 10 mg daily, paired t=1.10, p=0.0513): 5.1
- clinical significance: overall TOPS performance gain relative to gain expected by the average five-year-old in one year of development ([1]; after treatment): more than one-half
- performance on the TOPS, Baseline vs. Treatment-12 weeks ([1]; following 12 weeks of treatment, paired samples t=4.5, p=0.0107): significantly improved performance
- CELF-R subtests showing gains ([2]; following 24 weeks of donepezil treatment, n=5): 5 of 6
- significance of CELF-R subtest differences from baseline levels ([2]; following 24 weeks of treatment, p=0.15-0.23 in three expressive subtests and Word Classes): None of the differences was significantly different
- gain in language performance on the CELF-R subtests, High Language Group ([2]; individuals with higher language skills at Baseline, n=2, following treatment): large gains
- gain on the CELF-R language measures, Low Language Group ([2]; individuals with lower language skills at Baseline, n=3, following treatment): little gain
- subjects with mild cases of diarrhea ([3]; at the 5 mg dosage, each case improved spontaneously): Five of six subjects
- subjects reporting a transient decrease in appetite ([3]; on the 10 mg dosage, six subjects): one subject
- subjects reporting cramps for one day ([3]; six subjects): One subject
- adverse effect reported in DS patients (DS patients): urinary incontinence
